Assay results taken from publication PMC7005745 (Scientific Reports, 2020).
Read-outs that look alike come from different tables or passages of the source.

Tests used:
yopE expression (T3SS) = format: cell-based, Yersinia pseudotuberculosis; conditions: for IC50: read-out: E-lux IC50
YopH secretion (T3SS) = format: cell-based, Yersinia pseudotuberculosis
[1] = test system: Y. pseudotuberculosis serotype III strain YPIII(pIB102E-lux); format: cell-based, Yersinia pseudotuberculosis
[2] = test system: secretion of Yop effector proteins (T3SS), YPIII(pIB102); format: cell-based, Yersinia pseudotuberculosis; conditions: 40 µM, Western blot
[3] = test system: ExoS expression (T3SS), PAK(pCS500); format: cell-based, Pseudomonas aeruginosa; conditions: read-out: IC50 ExoS-gfp
[4] = test system: P. aeruginosa PAK(pCS500); format: cell-based, Pseudomonas aeruginosa
[5] = test system: wild-type P. aeruginosa strain PAK infecting J774 cells
[6] = test system: Y. pseudotuberculosis YPIII(pIB102; pFU95); format: cell-based, Yersinia pseudotuberculosis
[7] = yopE expression, YPIII(pIB102E-lux), T3S-inducing conditions, compounds 1–100 µM
[8] = YopH secretion, YPIII(pIB102E-lux), T3S-inducing conditions, compounds 1–100 µM
[9] = Y. pseudotuberculosis, LB with 2.5 mM CaCl2, 37 °C, OD600 up to 24 h
[10] = combined yopE-lux and YopH phosphatase assay

Row | Molecule | IC50 (yopE expression (T3SS); [7]) | IC50 (YopH secretion (T3SS); [8]) | Growth inhibition [1, 9] | IC50 [3] | Tocxicity P.a. [4] | IC50 (yopE expression (T3SS)) | IC50 (YopH secretion (T3SS)) | Growth inhibition [1] | Toxicity J774 (J774 cells) | Efficacy Pa J774 [5] | other results
1 | (-)-Hopeaphenol [compound 1, reference compound] | 10 µM | 7 µM | No | 9 µM | No |  |  |  |  |  | Reversibility of block of effector secretion (T3SS) after washing [2]: irreversibly block secretion of effector molecules; Reversibility of block of effector secretion (T3SS) after washing ([2]; listed as (-)-hopeaphenol): irreversible; Inhibition of T3SS-mediated cytotoxicity ([5]; 50 µM): complete inhibition of cytotoxicity
2 | Oc1ccc([C@@H]2Cc3cc(O)cc4c3[C@H](c3cc(O)cc(O)c32)[C@@H](c2ccc(O)cc2)O4)cc1 (racemic) [compound 3, (±)-Ampelopsin B] |  |  |  | 134 µM | No | > 50 µM | 40 µM | No | No | No | Inhibition of the T3SS (in words) (yopE expression (T3SS)): no or modest inhibition
3 | Oc1ccc(/C=C\c2cc(O)cc3oc(-c4ccc(O)cc4)c(-c4cc(O)cc(O)c4)c23)cc1 [compound 8, Viniferifuran] | 10 µM | 4 µM | without any effect on bacterial growth and No | 11 µM | No |  |  |  | Tox |  | Inhibition of yopE expression (in words) (yopE expression (T3SS); 1–100 µM, Fig. 1a): dose-dependent inhibition; Inhibition of the T3SS (in words) (yopE expression (T3SS); [10]): good inhibition; Inhibition of YopH secretion (in words) (YopH secretion (T3SS); 1–100 µM, Fig. 1b): dose-dependent inhibition; Reversibility of block of effector secretion (T3SS) after washing [2]: irreversibly block secretion of effector molecules; Reversibility of block of effector secretion (T3SS) after washing ([2]; listed as viniferifuran): irreversible
4 | (±)-Dehydro-ampelopsin B [compound 4] |  |  |  | 33 µM | No | 40 µM | 20 µM | No | No | No | Inhibition of the T3SS (in words) (yopE expression (T3SS)): no or modest inhibition
5 | C#CCOc1ccc(-c2oc3cc(O)cc(/C=C/c4ccc(O)cc4)c3c2-c2cc(O)cc(O)c2)cc1 [compound 13, Propagylated viniferifuran] |  |  |  |  |  | 6 µM | 3 µM |  |  |  | Binding to bacteria [6]: clear binding; Competition of binding by free viniferifuran [6]: binding could be outcompeted
6 | Oc1ccc(/C=C/c2cc(O)cc3c2[C@@H](c2cc(O)cc(O)c2)[C@H](c2ccc(O)cc2)O3)cc1 (racemic) [compound 6, (±)-ε-Viniferin] |  |  |  | 89 µM | No | > 50 µM | 30 µM | No | No | No | 
7 | Oc1ccc(-c2oc3ccc(/C=C/c4cc(O)cc(O)c4)cc3c2-c2cc(O)cc(O)c2)cc1 [compound 10, Dehydro-δ-viniferin] | 5 µM | 4 µM |  | 8 µM | No |  |  |  | Tox |  | Inhibition of yopE expression (in words) (yopE expression (T3SS); 1–100 µM, Fig. 1a): dose-dependent inhibition; Inhibition of YopH secretion (in words) (YopH secretion (T3SS); 1–100 µM, Fig. 1b): dose-dependent inhibition
8 | Oc1ccc(/C=C/c2cc(O)cc3c2[C@@H](c2cc(O)cc(O)c2)[C@H](c2ccc(O)cc2)O3)cc1 [compound 5, (+)-ε-Viniferin] | > 50 µM | 15 µM | No |  |  |  |  |  |  | modest or no efficacy | 
9 | (±)-δ-Viniferin [compound 9] | 29 µM | 15 µM | No |  |  |  |  |  |  |  | 
10 | Oc1ccc(/C=C/c2cc(O)cc3c2[C@@H](c2cc(O)cc(O)c2)[C@H](c2ccc(O)cc2)O3)cc1 (racemic) [compound 7, (±)-Cis-ε-viniferin (Omega-viniferin)] |  |  |  |  |  | > 50 µM | 48 µM | No |  |  | 
11 | Anigopreissin A [compound 11] |  |  |  | 15 µM | No | 12 µM | 6 µM | detrimental effect on bacterial growth and Yes | Some tox |  | Inhibition of yopE expression (in words) (yopE expression (T3SS)): dose-dependent inhibition; Inhibition of YopH secretion (in words) (YopH secretion (T3SS)): dose-dependent inhibition
12 | Oc1ccc([C@H]2c3c(O)cc(O)cc3[C@H]3c4c(cc(O)cc4[C@@H]2O)O[C@@H]3c2ccc(O)cc2)cc1 (racemic) [compound 2, (±)-Ampelopsin A] | > 50 µM | > 50 µM | No | > 200 µM | No |  |  |  | No | No | Inhibition of the T3SS (in words) (yopE expression (T3SS); [10]): no or modest inhibition
